Measured values reported in patent US5545640A, “Protease inhibiting succinic acid derivatives” (Bio-Mega/Boehringer Ingeleheim Research Inc., priority 1995, dated 1996).
Like-named read-outs stand apart in the source and are kept apart here.

Columns and labels:
HIV protease = molecular target: T1, HIV protease (Human immunodeficiency virus type 1 group M subtype B, UniProt P04585); test: biochemical; settings: read-out: IC50 (concentration causing 50% inhibition of HIV protease)
T1 construct: an HIV-encoded enzyme known as HIV protease
Text: The procedure is based on the capacity of the test compound to inhibit enzymatic cleavage by HIV protease of a decapeptide (the substrate) having an amino acid sequence which includes a known HIV protease cleavage site of a HIV polyprotein; see H. G. Krausslich et al., Proc. Natl. Acad. Sci. USA, 86, 807 (1989).
Anderson, S. Rakhit and C. Yoakim in the European patent application 443 560, published Aug. 28, 1991.

[1] = tested on: HIV (H9/HTLV-IIIB stock) in C8166 cells; test: Cell culture assay: inhibition of syncytia formation in HIV-infected C8166 cells (antiviral, anti-HIV effect); assay type: cell-based, HIV (HTLV-IIIB); human T4 cell line; settings: Human immunodeficiency virus 1; C8166 cells; H9/HTLV-IIIB, 50 times TCID50; 72 h, 37°; read-out: EC50 (concentration causing 50% inhibition of syncytia formation)
Text: Typical of such procedures are those described by S. Harada and N. Yamamoto, Jpn. J. Cancer Res. (Gann), 76, 432 (1985), and S. Harada et al., Science, 229, 563 (1985). An assay based on the latter procedures is described in the examples hereinafter.
In addition, Tables 1 to 8 list the results for exemplified compounds of formula 1 when assayed for antiviral (anti-HIV) effects according to the following protocol which is based on a cell culture assay previously described by Harada et al., supra. Transformed cells are used because of the rapidity with which HIV will replicate in the cells.
1. The test compound is dissolved in dimethylsulfoxide to a concentration of 5 mg/mL. The resultant solution .can be stored at 4° until use.
2. The resultant solution is diluted in RPMI 1640 (Gibco Laboratories, St. Lawrence, Mass., USA) to four times (4×) the final concentration which is to be tested. Once diluted in RPMI 1640, the solution is used in the cell culture assay within 4 h.
3. The latter solution (50 μL) is added to triplicate wells of a 96 well flat bottomed microtiter plate. RPMI (50 μL) also is added to control wells.
4. C8166 cells (5×10^4) in 50 μL of HEPES-buffered RPMI 1640 (pH=7.2), 10% heat inactivated fetal calf serum (FCS), […] gentamicin (complete media) are added to all wells.
5. Fifty times TCID50 of H9/HTLV-IIIB stock (stored in liquid nitrogen as cell culture supernatant in 50% FCS) in 100 μL of complete media is added to all wells. The infectious titer of the virus stocks is as previously determined by end point dilution on C8166 cells. The titer of stocks are stable for 6-12 months when stored at -193°.
6. Microtiter plates are then placed on level shelves of a 37°, 5% CO2 humidified incubator for 72 h.
7. Plates are then removed and centers of syncytia are counted in each well by low power phase contrast light microscopy. […] Control wells should have between 25 and 75 centers of syncytia per well.
8. Percent inhibition of syncytia formation is calculated by the formula: [formula]
The concentration of the test compound which causes a 50% inhibition of syncytia formation, i.e. the EC50, is determined by using the technique of serial dilution of the working solution at step 3 and graphically plotting the observed percent inhibition of syncytia formation against the various concentrations of the test compound.
In the following tables, assay results are listed for the exemplified compounds from the aforementioned recombinant HIV protease HPLC assay under the heading IC50 (nM) and from the cell culture assay under the heading EC50 (nM). Note that for some of the compounds listed in tables, the EC50 's have not been determined (ND).

[2] = recombinant HIV protease, decapeptide substrate, HPLC assay

Compound	IC50 (HIV protease; [2]) [nM]	EC50 [1] [nM]	IC50 (HIV protease) [nM]
CCC(CC)NC(=O)C[C@@H](C(=O)NC[C@@H](O)[C@H](Cc1ccccc1)NC(=O)[C@@H](NC(=O)OC(C)(C)C)C(C)(C)C)C(C)(C)C [Entry 1]	100	–	–
CCC(CC)NC(=O)C[C@@H](C(=O)NC[C@@H](O)[C@H](Cc1ccccc1)NC(=O)[C@H](CC(=O)O)NC(=O)OC(C)(C)C)C(C)(C)C [Entry 2]	90	–	–
CCC(CC)NC(=O)C[C@@H](C(=O)NC[C@@H](O)[C@H](Cc1ccccc1)NC(=O)[C@H](CC(N)=O)NC(=O)CCN1CCCCC1)C(C)(C)C [Entry 3]	88	–	–
CCC(CC)NC(=O)C[C@@H](C(=O)NC[C@@H](O)[C@H](Cc1ccccc1)NC(=O)[C@@H](NC(=O)OC(C)(C)C)[C@@H](C)C(=O)OCc1ccccc1)C(C)(C)C [Entry 4]	80	–	–
CCC(CC)NC(=O)C[C@@H](C(=O)NC[C@@H](O)[C@H](Cc1ccccc1)NC(=O)[C@H](CC(N)=O)NC(=O)C1Cc2ccccc2CN1)C(C)(C)C (stereo partly shown) [Entry 5]	32	–	–
CCC(CC)NC(=O)C[C@@H](C(=O)NC[C@@H](O)[C@H](Cc1ccccc1)NC(=O)[C@H](CO)NC(=O)c1ccc2ccccc2n1)C(C)(C)C [Entry 6]	27	420	–
CCC(CC)NC(=O)C[C@@H](C(=O)NC[C@@H](O)[C@H](Cc1ccccc1)NC(=O)[C@H](CC(N)=O)NC(=O)c1nccc2ccccc12)C(C)(C)C [Entry 7]	20	–	–
CCC(CC)NC(=O)C[C@@H](C(=O)NC[C@@H](O)[C@H](Cc1ccccc1)NC(=O)[C@H](CCC(N)=O)NC(=O)OCc1ccccc1)C(C)(C)C [Entry 8]	19	–	–
CCC(CC)NC(=O)C[C@@H](C(=O)NC[C@@H](O)[C@H](Cc1ccccc1)NC(=O)[C@H](CC(N)=O)NC(=O)CCc1ccccc1)C(C)(C)C [Entry 9]	15	1900	–
CCC(CC)NC(=O)C[C@@H](C(=O)NC[C@@H](O)[C@H](Cc1ccccc1)NC(=O)[C@H](CC(N)=O)NC(=O)c1cccc2cccnc12)C(C)(C)C [Entry 10]	15	270	–
CCC(CC)NC(=O)C[C@@H](C(=O)NC[C@@H](O)[C@H](Cc1ccccc1)NC(=O)[C@H](CC(N)=O)NC(=O)c1cc2ccccc2n1C)C(C)(C)C [Entry 11]	14	660	–
CCC(CC)NC(=O)C[C@@H](C(=O)NC[C@@H](O)[C@H](Cc1ccccc1)NC(=O)[C@H](CC(N)=O)NC(=O)CCCCc1ccccc1)C(C)(C)C [Entry 12]	13	–	–
CCC(CC)NC(=O)C[C@@H](C(=O)NC[C@@H](O)[C@H](Cc1ccccc1)NC(=O)[C@H](C(C)C)N(C)C(=O)OCc1ccccc1)C(C)(C)C [Entry 13]	12	1900	–
CCC(CC)NC(=O)C[C@@H](C(=O)NC[C@@H](O)[C@H](Cc1ccccc1)NC(=O)[C@H](CC(N)=O)NC(=O)NCc1ccccc1)C(C)(C)C [Entry 14]	11	–	–
CCC(CC)NC(=O)C[C@@H](C(=O)NC[C@@H](O)[C@H](Cc1ccccc1)NC(=O)[C@H](CC(N)=O)NC(=O)c1ccnc2ccccc12)C(C)(C)C [Entry 15]	9	450	–
CCC(CC)NC(=O)C[C@@H](C(=O)NC[C@@H](O)[C@H](Cc1ccccc1)NC(=O)[C@@H](NC(=O)OC(C)(C)C)[C@@H](C)C(=O)O)C(C)(C)C [Entry 16]	7	–	–
CCC(CC)NC(=O)C[C@@H](C(=O)NC[C@@H](O)[C@H](Cc1ccccc1)NC(=O)[C@H](CC(N)=O)NC(=O)C=Cc1ccccc1)C(C)(C)C [Entry 17]	7	1400	–
CCC(CC)NC(=O)C[C@@H](C(=O)NC[C@@H](O)[C@H](Cc1ccccc1)NC(=O)[C@H](CC(N)=O)NC(=O)c1cc2ccccc2cn1)C(C)(C)C [Entry 18]	5	220	–
CCC(CC)NC(=O)C[C@@H](C(=O)NC[C@@H](O)[C@H](Cc1ccccc1)NC(=O)[C@H](CC(N)=O)NC(=O)CNc1ccccc1)C(C)(C)C [Entry 19]	5	–	–

Compound	IC50 (HIV protease; [2]) [nM]	EC50 [1] [nM]	IC50 (HIV protease) [nM]
CCC(CC)NC(=O)C[C@@H](C(=O)NC[C@@H](O)[C@H](Cc1ccccc1)NC(=O)[C@H](CC(N)=O)NC(=O)OCc1ccccc1)C(C)(C)C [Entry 20]	5	480	–
CCC(CC)NC(=O)C[C@@H](C(=O)NC[C@@H](O)[C@H](Cc1ccccc1)NC(=O)[C@@H](NC(=O)c1ccc2ccccc2n1)[C@@H](C)C(=O)O)C(C)(C)C [Entry 22]	5	–	–
CCC(CC)NC(=O)C[C@@H](C(=O)NC[C@@H](O)[C@H](Cc1ccccc1)NC(=O)[C@H](CC(N)=O)NC(=O)C1Cc2ccccc2CN1)C(C)(C)C (stereo partly shown) [Entry 24]	4	–	–
CCC(CC)NC(=O)C[C@@H](C(=O)NC[C@@H](O)[C@H](Cc1ccccc1)NC(=O)[C@H](CC(N)=O)NC(=O)C1Cc2ccccc2N1)C(C)(C)C (stereo partly shown) [Entry 30]	–	–	3
CCC(CC)NC(=O)C[C@@H](C(=O)NC[C@@H](O)[C@H](Cc1ccccc1)NC(=O)[C@@H](NC(=O)c1ccc2ccccc2n1)C1(C(=O)O)CCCC1)C(C)(C)C [Entry 33]	3	–	–
CCC(CC)NC(=O)C[C@@H](C(=O)NC[C@@H](O)[C@H](Cc1ccccc1)NC(=O)[C@H](CC(N)=O)NC(=O)c1ccc2ncccc2c1)C(C)(C)C [Entry 38]	2	–	–
CCC(CC)NC(=O)C[C@@H](C(=O)NC[C@@H](O)[C@H](Cc1ccccc1)NC(=O)[C@H](CC(N)=O)NC(=O)c1cnc2ccccc2c1)C(C)(C)C [Entry 39]	2	–	–
CCC(CC)OC(=O)CC(C(=O)NC[C@@H](O)[C@H](Cc1ccccc1)NC(=O)[C@H](CC(N)=O)NC(=O)OCc1ccccc1)C(C)(C)C (stereo partly shown) [Entry 47]	51	–	–
CCC(CC)NC(=O)CC(C(=O)NC[C@@H](O)[C@H](Cc1ccccc1)NC(=O)[C@H](CC(N)=O)NC(=O)OCc1ccccc1)C(C)C (stereo partly shown) [Entry 48]	32	–	–
CCC(CC)NC(=O)CC(C(=O)NC[C@@H](O)[C@H](Cc1ccccc1)NC(=O)[C@H](CC(N)=O)NC(=O)c1ccc2ccccc2n1)C(C)C (stereo partly shown) [Entry 50]	9	–	–
CCC(CC)NC(=O)C(CC(=O)NC[C@@H](O)[C@H](Cc1ccccc1)NC(=O)[C@@H](NC(=O)OCc1ccccc1)C(C)C)CC(C)(C)C (stereo partly shown) [Entry 54]	50	–	–
CC(C)[C@H](NC(=O)OCc1ccccc1)C(=O)N[C@@H](Cc1ccccc1)[C@H](O)CNC(=O)C1CCCCC1C(=O)NCC(C)(C)C (stereo partly shown) [Entry 55]	66	–	–
CCCC(CCC)NC(=O)C1CCCCC1C(=O)NC[C@@H](O)[C@H](Cc1ccccc1)NC(=O)[C@@H](NC(=O)OCc1ccccc1)C(C)C (stereo partly shown) [Entry 56]	29	–	–
CCC(CC)NC(=O)C1CCCCC1C(=O)NC[C@@H](O)[C@H](Cc1ccccc1)NC(=O)[C@@H](NC(=O)OCc1ccccc1)C(C)C (stereo partly shown) [Entry 57]	14	–	–
CC(C)OC(=O)C[C@@H](C(=O)NC[C@@H](O)[C@H](Cc1ccccc1)NC(=O)[C@@H](NC(=O)c1ccc2ccccc2n1)[C@@H](C)O)C(C)(C)C [Entry 58, 3(R)-tert-butyl-4-{2(R)-hydroxy-4-phenyl-3(S)-{[N-(2-quinolylcarbonyl)threonyl]-amino}butylamino}-4-oxobutyric acid isopropyl ester]	46	–	–
CCC(CC)NC(=O)C[C@H](C(=O)NC[C@@H](O)[C@H](Cc1ccccc1)NC(=O)[C@@H](NC(=O)OCc1ccccc1)C(C)(C)C)C(C)(C)C [Entry 60]	29	–	–
CCC(CC)NC(=O)[C@H](CC(=O)NC[C@@H](O)[C@H](Cc1ccccc1)NC(=O)[C@@H](NC(=O)OCc1ccccc1)C(C)C)C(C)(C)C [Entry 61]	13	–	–
CCC(CC)NC(=O)C[C@@H](C(=O)NC[C@@H](O)[C@H](Cc1ccc(O)cc1)NC(=O)[C@@H](NC(=O)c1ccc2ccccc2n1)[C@@H](C)O)C(C)(C)C [Entry 62, N^1-(1-ethylpropyl)-N^4 -{3(S)-{[N-(2-quinolylcarbonyl)-threonyl]amino}-2(R)-hydroxy-4-(4-hydroxyphenyl)butyl}-3(R)-tert-butylbutanediamide]	61	–	–
